Test results taken from article PMC9574050, “Design, synthesis, and insecticidal activity of a novel series of flupyrimin analogs bearing 1-aryl-1H-pyrazol-4-yl subunits” (Frontiers in Chemistry, 2022).

Tests used:
Format in all cases: in vivo
Aphis craccivora = assay: Insecticidal activity against Aphis craccivora (Potter spray tower); conditions: 400 μg/mL, counted 24 h later, read-out: Mortality rate (%) A. craccivora
Description: (§1) Preparation of test agent. Dissolve accurately weighed tested compound in DMF to prepare 1% mother liquor, and then dilute it with distilled water containing 0.1% Tween-80 to corresponding concentrations for later use.
Insecticidal activity against Aphis craccivora ([Liu et al., 2022]). About 30 nymphs of alfalfa aphid were placed on a horsebean leaf dish, and then 2.5 ml of the tested agent was sprayed with Potter spray tower. After treatment, they were cultured in an observation room at 20–22°C. The result was counted 24 h later, and the no-response insect body when it was lightly touched with tweezers was regarded as dead. Each treatment was repeated three times, and DMF without the tested compound was used as a blank control.
(§2) The insecticidal activities of the test compounds against the abovementioned five insects were calculated by the following formula: P1=(K/N)×100, (1) P2=(Pt−P0)/(1−P0)×100, (2) where P1 is the mortality rate; K is the dead insect number; N is the total number of experimental insects; P2 is the corrected mortality rate; Pt is the mortality rate of treatment; P0 is the mortality rate of CK. If the mortality rate of CK is less than 5%, without the required correction, and if the mortality rate of CK is between 5 and 20%, P2 should be calculated according to formula II.

Nilaparvata lugens = assay: Insecticidal activity against Nilaparvata lugens (Potter spray tower); conditions: 24 h, 3rd instar nymphae, 1 day after treatment, read-out: Mortality rate (%) N. lugens; for mortality at 400 µg/mL: 400 μg/mL; for mortality at 100 µg/mL: 100 μg/mL
Description: as §1
Insecticidal activity against Nilaparvata lugens ([Ghareeb et al., 2021]). The seedlings with two leaves and one heart were placed in a Petri dish with a bottom diameter of 3 cm and covered with white sand. After the 3rd instar nymphae of N. lugens were stunned by CO2, about 15 nymphae were received in each dish, and then 2.5 ml of the tested agent was sprayed with Potter spray tower. The mortality of N. lugens was investigated 1 day after the treatment. Each treatment was repeated three times, and DMF without the tested compound was used as a blank control.
as §2

Plutella xylostella = assay: Insecticidal activity against Plutella xylostella (soaking method); conditions: Plutella xylostella, 48 h, 2nd instar larvae, counted 2 days later, read-out: Mortality rate (%) P. xylostella; for mortality at 25 µg/mL: 25 μg/mL; for mortality at 100 µg/mL: 100 μg/mL; for mortality at 400 µg/mL: 400 μg/mL
Description: as §1
Insecticidal activity against Plutella xylostella ([Yang et al., 2021]). The soaking method was adopted. After soaking a proper amount of radish leaves for 10 s, it was placed in a plastic Petri dish with filter paper and dried naturally in the shade. Each dish was inoculated with 10 2nd instar P. xylostella larvae and placed in an observation room at 22°C with light (16/8 h). The result was counted 2 days later, and the no-response insect body when it was lightly touched with a brush was regarded as dead. Each treatment was repeated three times, and DMF without the tested compound was used as a blank control.
as §2

Chilo suppressalis = assay: Insecticidal activity against Chilo suppressalis (soaking method); conditions: 96 h, 400 μg/mL, 3rd instar larvae, counted 4 days later, read-out: Mortality rate (%) C. suppressalis
Description: as §1
Insecticidal activity against Chilo suppressalis ([Huang et al., 2022]). The soaking method was adopted. The Zizania latifolia slices were soaked in a tested solution for 10 s, then taken out, and placed in a plastic Petri dish with filter paper to naturally dry in the shade. […] The result was counted 4 days later, and the no-response insect body when it was lightly touched with a brush was regarded as dead. Each treatment was repeated three times, and DMF without the tested compound was used as a blank control.
as §2

Helicoverpa armigera = assay: Insecticidal activity against Helicoverpa armigera (soaking method); conditions: Helicoverpa armigera, 48 h; 400 μg/mL; 2nd instar larvae; counted 2 days later; read-out: Mortality rate (%) H. armigera
Description: as §1
Insecticidal activity against Helicoverpa armigera. The soaking method was adopted ([Yang et al., 2022]). After soaking a proper amount of corn leaves for 10 s, they were placed in a plastic Petri dish with filter paper and dried naturally in the shade. Ten larvae of the 2nd instar H. armigera were attached to each dish and placed in an observation room at 26°C with light (16/8 h). The result was counted 2 days later, and the no-response insect body when it was lightly touched with a brush was regarded as dead. Each treatment was repeated 3 times, and DMF without the tested compound was used as a blank control.
as §2

| Structure (SMILES) | mortality at 400 µg/mL (Aphis craccivora) [%] | mortality at 400 µg/mL (Nilaparvata lugens) [%] | mortality at 25 µg/mL (Plutella xylostella) [%] | mortality at 100 µg/mL (Plutella xylostella) [%] | mortality at 400 µg/mL (Plutella xylostella) [%] | mortality at 400 µg/mL (Chilo suppressalis) [%] | mortality at 400 µg/mL (Helicoverpa armigera) [%] | mortality at 100 µg/mL (Nilaparvata lugens) [%] |
| --- | --- | --- | --- | --- | --- | --- | --- | --- |
| Cn1cc(C(=O)/N=c2\ccccn2Cc2cnn(-c3ccc(Cl)cc3)c2C(F)(F)F)c(C(F)F)n1 [Compound D4, (E)-N-(1-((1-(4-chlorophenyl)-5-(trifluoromethyl)-1H-pyrazol-4-yl)methyl)pyridin-2(1H)-ylidene)-3-(difluoromethyl)-1-methyl-1H-pyrazole-4-carboxamide] | 0 | 0 | 6.7 | 60 | 100 | 0 | 0 |  |
| COCC(=O)/N=c1\ccccn1Cc1cnn(-c2ccc(F)cc2)c1C(F)F [Compound B8, (E)-N-(1-((5-(difluoromethyl)-1-(4-fluorophenyl)-1H-pyrazol-4-yl)methyl)pyridin-2(1H)-ylidene)-2-methoxyacetamide] | 0 | 0 |  |  | 56.7 | 0 | 0 |  |
| COCC(=O)/N=c1\ccccn1Cc1cnn(-c2cccc(F)c2)c1C(F)F [Compound B7, (E)-N-(1-((5-(difluoromethyl)-1-(3-fluorophenyl)-1H-pyrazol-4-yl)methyl)pyridin-2(1H)-ylidene)-2-methoxyacetamide] | 0 | 0 |  |  | 66.7 | 0 | 0 |  |
| O=C(/N=c1\ccccn1Cc1cnn(-c2ccc(Cl)cc2)c1C(F)(F)F)C(F)(F)C(F)(F)F [Compound C4, (E)-N-(1-((1-(4-chlorophenyl)-5-(trifluoromethyl)-1H-pyrazol-4-yl)methyl)pyridin-2(1H)-ylidene)-2,2,3,3,3-pentafluoropropanamide] | 0 | 0 |  |  | 73.3 | 0 | 0 |  |
| O=C(/N=c1\ccccn1Cc1cnn(-c2cccc(F)c2)c1C(F)F)C(F)(F)C(F)(F)F [Compound C7, (E)-N-(1-((5-(difluoromethyl)-1-(3-fluorophenyl)-1H-pyrazol-4-yl)methyl)pyridin-2(1H)-ylidene)-2,2,3,3,3-pentafluoropropanamide] | 0 | 0 |  |  | 66.7 | 40 | 0 |  |
| COCC(=O)/N=c1\ccccn1Cc1cnn(-c2ccc(C(F)(F)F)cc2)c1C(F)(F)F [Compound B5, (E)-2-methoxy-N-(1-((5-(trifluoromethyl)-1-(4-(trifluoromethyl)phenyl)-1H-pyrazol-4-yl)methyl)pyridin-2(1H)-ylidene)acetamide] | 0 | 0 | 0 | 100 | 100 | 0 | 0 |  |
| Cn1cc(C(=O)/N=c2\ccccn2Cc2cnn(-c3ccccc3Cl)c2C(F)(F)F)c(C(F)F)n1 [Compound D2, (E)-N-(1-((1-(2-chlorophenyl)-5-(trifluoromethyl)-1H-pyrazol-4-yl)methyl)pyridin-2(1H)-ylidene)-3-(difluoromethyl)-1-methyl-1H-pyrazole-4-carboxamide] | 0 | 0 |  |  | 43.3 | 0 | 0 |  |
| O=C(/N=c1\ccccn1Cc1cnn(-c2ccc(C(F)(F)F)cc2)c1C(F)(F)F)C(F)(F)F [Compound A5, (E)-2,2,2-trifluoro-N-(1-((5-(trifluoromethyl)-1-(4-(trifluoromethyl)phenyl)-1H-pyrazol-4-yl)methyl)pyridin-2(1H)-ylidene)acetamide] | 0 | 0 |  |  | 73.3 | 0 | 0 |  |
| COCC(=O)/N=c1\ccccn1Cc1cnn(-c2cccc(Cl)c2)c1C(F)F [Compound B6, (E)-N-(1-((1-(3-chlorophenyl)-5-(difluoromethyl)-1H-pyrazol-4-yl)methyl)pyridin-2(1H)-ylidene)-2-methoxyacetamide] | 0 | 0 | 0 | 83.3 | 100 | 0 | 0 |  |
| Cn1cc(C(=O)/N=c2\ccccn2Cc2cnn(-c3cccc(Cl)c3)c2C(F)F)c(C(F)F)n1 [Compound D6, (E)-N-(1-((1-(3-chlorophenyl)-5-(difluoromethyl)-1H-pyrazol-4-yl)methyl)pyridin-2(1H)-ylidene)-3-(difluoromethyl)-1-methyl-1H-pyrazole-4-carboxamide] | 0 | 100 | 56.7 | 100 | 100 | 0 | 0 | 0 |
| COCC(=O)/N=c1\ccccn1Cc1cnn(-c2ccccc2Cl)c1C(F)(F)F [Compound B2, (E)-N-(1-((1-(2-chlorophenyl)-5-(trifluoromethyl)-1H-pyrazol-4-yl)methyl)pyridin-2(1H)-ylidene)-2-methoxyacetamide] | 0 | 0 | > 70 | 96.7 | 100 | 0 | 0 |  |
| Cn1cc(C(=O)/N=c2\ccccn2Cc2cnn(-c3ccc(F)cc3)c2C(F)F)c(C(F)F)n1 [Compound D7, (E)-3-(difluoromethyl)-N-(1-((5-(difluoromethyl)-1-(4-fluorophenyl)-1H-pyrazol-4-yl)methyl)pyridin-2(1H)-ylidene)-1-methyl-1H-pyrazole-4-carboxamide] | 0 | 100 |  |  | 73.3 | 0 | 0 | 0 |
| Cn1cc(C(=O)/N=c2\ccccn2Cc2cnn(-c3ccccc3)c2C(F)(F)F)c(C(F)F)n1 [Compound D1, (E)-3-(difluoromethyl)-1-methyl-N-(1-((1-phenyl-5-(trifluoromethyl)-1H-pyrazol-4-yl)methyl)pyridin-2(1H)-ylidene)-1H-pyrazole-4-carboxamide] | 0 | 0 |  |  | 46.7 | 0 | 0 |  |
| O=C(/N=c1\ccccn1Cc1cnn(-c2ccccc2)c1C(F)(F)F)C(F)(F)F [Compound A1, (E)-2,2,2-trifluoro-N-(1-((1-phenyl-5-(trifluoromethyl)-1H-pyrazol-4-yl)methyl)pyridin-2(1H)-ylidene)acetamide] | 0 | 0 |  |  | 76.7 | 0 | 0 |  |
